The values that follow come from ChEMBL document CHEMBL1148238, “Design, synthesis and cytotoxicity of 7-deoxy aryl discodermolide analogues” (Bioorg Med Chem Lett, 2004).

pIC50: −log10 of the molar value.

Holding throughout (assay type): functional, cell-based
What all share (conditions): Homo sapiens

Test [1] concerns A549. The test is described as follows: Cytotoxicity of compound against A549 cell line.
Test [2] has as its system MCF7. The test is described as follows: Cytotoxicity of compound against MCF-7 cell line.
Test [3] deals with MCF7. The test is described as follows: Cytotoxicity of compound against MCF-7/ADR cell line.
Test [4] has as its system SK-OV-3. As to the kind of experiment: Cytotoxicity of compound against SKOV-3 cell line.

With `C=C/C=C\[C@H](C)[C@H](OC(N)=O)[C@@H](C)[C@H](O)[C@@H](C)C/C(C)=C\[C@H](C)[C@@H](O)[C@@H](C)/C=C\CCc1sccc1C`, the pIC50 (usually the negative decadic logarithm of the IC50, by convention in mol/L) in test [1] is 6.10; in test [2], 6.43; in test [3] it was 6.21; in test [4], 6.43.

Consider `C=C/C=C\[C@H](C)[C@H](OC(N)=O)[C@@H](C)[C@H](O)[C@@H](C)C/C(C)=C\[C@H](C)[C@@H](O)[C@@H](C)/C=C\CCc1cccc(Cl)c1`, for which the pIC50 is 6.24 in test [1], 6.40 in test [2], 6.19 in test [3] and 6.42 in test [4].

For `C=C/C=C\[C@H](C)[C@H](OC(N)=O)[C@@H](C)[C@H](O)[C@@H](C)C/C(C)=C\[C@H](C)[C@@H](O)[C@@H](C)/C=C\CCc1cc(F)cc(F)c1`, the pIC50 in test [1] is 6.00; in test [2], 6.22; in test [3], 5.70; in test [4] it was 6.44.

In the case of `C=C/C=C\[C@H](C)[C@H](OC(N)=O)[C@@H](C)[C@H](O)[C@@H](C)C/C(C)=C\[C@H](C)[C@@H](O)[C@@H](C)/C=C\CCc1ccc(Oc2ccccc2)cc1`, the pIC50 was 5.00 in test [1], 5.40 in test [2], 5.00 in test [3] and 5.00 in test [4].

With `C=C/C=C\[C@H](C)[C@H](OC(N)=O)[C@@H](C)[C@H](O)[C@@H](C)C/C(C)=C\[C@H](C)[C@@H](O)[C@@H](C)/C=C\CCc1ccc(C)c(O)c1`, the pIC50 in test [1] is 5.40; in test [2], 6.11; in test [3], 5.40; in test [4], 6.39.

In the case of `C=C/C=C\[C@H](C)[C@H](OC(N)=O)[C@@H](C)[C@H](O)[C@@H](C)C/C(C)=C\[C@H](C)[C@@H](O)[C@@H](C)/C=C\CCc1ccccc1`, the pIC50 in test [1] was 6.29; in test [2], 6.32; in test [3] it was 6.25; in test [4], 6.46.

As for `C=C/C=C\[C@H](C)[C@H](OC(N)=O)[C@@H](C)[C@H](O)[C@@H](C)C/C(C)=C\[C@H](C)[C@@H](O)[C@@H](C)/C=C\CCc1cccc(OC)c1`, the pIC50 in test [1] was 6.22; in test [2], 6.48; in test [3], 6.30; in test [4], 6.43.

Take `C=C/C=C\[C@H](C)[C@H](OC(N)=O)[C@@H](C)[C@H](O)[C@@H](C)C/C(C)=C\[C@H](C)[C@@H](O)[C@@H](C)/C=C\CCc1cc(O)cc(O)c1`: the pIC50 in test [1] is 6.51; in test [2], 6.80; in test [3] it was below 6.00; in test [4] it was 7.40.

Turning to `C=C/C=C\[C@H](C)[C@H](OC(N)=O)[C@@H](C)[C@H](O)[C@@H](C)C/C(C)=C\[C@H](C)[C@@H](O)[C@@H](C)/C=C\CCc1ccsc1`, the pIC50 in test [1] is 5.40; in test [2], 6.07; in test [3] it was 5.40; in test [4], 6.36.

Take `C=C/C=C\[C@H](C)[C@H](OC(N)=O)[C@@H](C)[C@H](O)[C@@H](C)C/C(C)=C\[C@H](C)[C@@H](O)[C@@H](C)/C=C\CCc1ccc(C)c(F)c1`: the pIC50 is 5.40 in test [1], 6.00 in test [2], 5.40 in test [3] and 6.00 in test [4].

For `C=C/C=C\[C@H](C)[C@H](OC(N)=O)[C@@H](C)[C@H](O)[C@@H](C)C/C(C)=C\[C@H](C)[C@@H](O)[C@@H](C)/C=C\CCc1cccc(O)c1C`, the pIC50 in test [1] was 6.04; in test [2], 6.31; in test [3], 6.00; in test [4], 6.57.

Consider `C=C/C=C\[C@H](C)[C@H](OC(N)=O)[C@@H](C)[C@H](O)[C@@H](C)C/C(C)=C\[C@H](C)[C@@H](O)[C@@H](C)/C=C\CCc1cccc(O)c1`, for which the pIC50 in test [1] was 6.72; in test [2], 6.89; in test [3], 6.41; in test [4], 7.40.

With `C=C/C=C\[C@H](C)[C@H](OC(N)=O)[C@@H](C)[C@H](O)[C@@H](C)C/C(C)=C\[C@H](C)[C@@H](O)[C@@H](C)/C=C\CCc1cccc(F)c1`, the pIC50 in test [1] was 6.19; in test [2], 6.43; in test [3], 6.30; in test [4], 6.40.
